Patent publication US11236108B2, “Functionalized heterocycles as antiviral agents” (ENANTA PHARMACEUTICALS, INC., priority 2019, dated 2022)

Tests used:
[1] = Compound induced cellular toxicity in HepG2 cells (ATPlite 1 Step); format: cell-based; conditions: human, three days exposure, 50% reduction of total ATP levels relative to no drug controls
Protocol: At day 3, post seeding cells are treated with ATPlite 1 Step according to the manufacturer's instructions.

[2] = tested on: hepatitis B virus (HBV); assay: Reduction of viral product accumulation (HBV DNA qPCR, HBsAg or HBeAg ELISA) in 2.2.15 cells; format: cell-based; conditions: 120 h, day 5 post treatment, 50% reduction of viral product accumulation in cell lysates or supernatants relative to no drug controls, readout not specified
Protocol: 2.2.15 cells are passaged upon attaining confluency in DMEM/F12 media in the presence of 10% FBS, Penn/Strep, and 250 ug/mL G418. Novel compounds are 5 fold serially diluted in DMSO and added to 96 well plates containing 35,000 cells/well at a 1:200 dilution so that the final concentration of DMSO is 0.5%. On day 5, post treatment cell lysates and supernatants are harvested for analysis.
Cells are lysed using Agilent Sidestep Lysis buffer, diluted 1:100 and quantified via quantitative real time PCR. Commercially available ELISA kits are used to quantitate the viral proteins HBsAg (Alpco) or HBeAg (US Biological) by following the manufacturer's recommended protocol after diluting samples to match the linear range of their respective assays. Irrespective of readout, compound concentrations that reduce viral product accumulation in the cell lysates or supernatants by 50% relative to no drug controls (EC50) are reported; EC50 ranges are as follows: A<0.1 μM; B 0.1-1 μM; C>1 μM.

Structure (SMILES) | CC50 at 3 days [1] | EC50 [2]
CC(C)(C)[C@@H]1Oc2c(cc(O)c3occc23)-c2c1cc(C(=O)O)c(=O)n2C1CC1 [Example 5, (S)-5-(tert-butyl)-9-cyclopropyl-11-hydroxy-8-oxo-8,9-dihydro-5H-furo[2′,3′:7,8]chromeno[4,3-b]pyridine-7-carboxylic acid] | > 25 µM | < 0.1 µM
CC(C)(C)[C@@H]1Oc2c(cc(Br)c3occc23)-c2c1cc(C(=O)O)c(=O)n2C1CC1 [Example 1, (S)-11-bromo-5-(tert-butyl)-9-cyclopropyl-8-oxo-8,9-dihydro-5H-furo[2′,3′:7,8]chromeno[4,3-b]pyridine-7-carboxylic acid] | > 25 µM | < 0.1 µM
CC(C)(C)[C@@H]1Oc2c(cc(Cl)c3ccoc23)-c2c1cc(C(=O)O)c(=O)n2C1CC1 [Example 3, (S)-5-(tert-butyl)-11-chloro-9-cyclopropyl-8-oxo-8,9-dihydro-5H-furo[3′,2′:7,8]chromeno[4,3-b]pyridine-7-carboxylic acid] | > 25 µM | < 0.1 µM
CC(C)(C)[C@@H]1Oc2c(cc(Cl)c3occc23)-c2c1cc(C(=O)O)c(=O)n2C1CC1 [Example 2, (S)-5-(tert-butyl)-11-chloro-9-cyclopropyl-8-oxo-8,9-dihydro-5H-furo[2′,3′:7,8]chromeno[4,3-b]pyridine-7-carboxylic acid] | > 25 µM | < 0.1 µM
CC(C)(C)[C@@H]1Oc2c(ccc3occc23)-c2c1cc(C(=O)O)c(=O)n2C1CC1 [Example 4, (S)-5-(tert-butyl)-9-cyclopropyl-8-oxo-8,9-dihydro-5H-furo[2′,3′:7,8]chromeno[4,3-b]pyridine-7-carboxylic acid] | > 25 µM | < 0.1 µM
COc1cc2c(c3ccoc13)O[C@@H](C(C)(C)C)c1cc(C(=O)O)c(=O)n(C3CC3)c1-2 [Example 6, (S)-5-(tert-butyl)-9-cyclopropyl-11-methoxy-8-oxo-8,9-dihydro-5H-furo[2′,3′:7,8]chromeno[4,3-b]pyridine-7-carboxylic acid] | > 25 µM | < 0.1 µM
